This note sets out measurements from PMC6036094 (International Journal of Medical Sciences, 2018).

Structures are written as SMILES. Read-outs that look alike come from different tables or passages of the source.

The format of the data set is in vivo, Male Wistar rats. The following applies: for Skin tissue-to-plasma concentration ratio / Concentration in kidneys / Concentration in small intestine / Kidney-to-plasma concentration ratio / Small intestine-to-plasma concentration ratio / Concentration in skin tissue: mean ± SD; for concentration at 1 h / concentration at 8 h / concentration at 24 h: male, Wistar, rat, po.

The mark [1] stands for this setting: 1 to 24 h after oral administration.

Take `OC[C@H]1O[C@@H](c2ccc(F)c(Cc3cc4ccccc4s3)c2)[C@H](O)[C@@H](O)[C@@H]1O` [Ipragliflozin, ipragliflozin]: the “Time course of kidney-to-plasma concentration ratio” value under setting [1] was “tended to increase”. Besides, under setting [1], the “Time course of skin tissue-to-plasma concentration ratio” value is “increased in a time-dependent manner”. Moreover, the “Skin tissue-to-plasma concentration ratio” value is, setting by setting: (1 h after oral administration) 0.45±0.20; (1 h after oral administration, listed as ipragliflozin) 0.45 ± 0.20; (24 h after oral administration) 5.82±3.66; (24 h after oral administration, listed as ipragliflozin) 5.82 ± 3.66. Moreover, the concentration at 1 h was 1420 ± 405 ng/g (kidneys), 152 ± 53.4 ng/g (skin tissue) and 730 ± 377 ng/g (small intestine). This compound also showed a concentration at 8 h (kidneys) of 1090 ± 456 ng/g, a concentration at 8 h (skin tissue) of 168 ± 28.7 ng/g and a concentration at 8 h (small intestine) of 348 ± 105 ng/g. Further, the concentration at 24 h by setting is: (kidneys) 301 ± 86.9 ng/g; (skin tissue, 1 mg/kg) 90.6 ± 38.9 ng/g.

Turning to `Cc1ccc([C@@H]2O[C@H](CO)[C@@H](O)[C@H](O)[C@H]2O)cc1Cc1ccc(-c2ccc(F)cc2)s1` [Canagliflozin, canagliflozin], under “1 h after oral administration”, the Concentration in kidneys was found to be 802.7 ± 269.2 ng/g, the “Concentration in small intestine” value worked out at 2925.2 ± 1074.2 ng/g, the Kidney-to-plasma concentration ratio stood at 3.69±2.84 and the “Skin tissue-to-plasma concentration ratio” value is given as 0.18±0.18. Further, the “Small intestine-to-plasma concentration ratio” value (1 h after oral administration) turned out to be 12.93±9.88. Further, under “8 h after oral administration”, the Concentration in kidneys is 1014.1 ± 306.0 ng/g, the “Concentration in skin tissue” value worked out at 82.6 ± 22.9 ng/g, the “Concentration in small intestine” value was 440.1 ± 117.2 ng/g and the Kidney-to-plasma concentration ratio is 2.11±0.54. For the setting “8 h after oral administration”, the “Skin tissue-to-plasma concentration ratio” value is 0.17±0.03 and the “Small intestine-to-plasma concentration ratio” value turned out to be 0.92±0.20. In addition, under “24 h after oral administration”, the Concentration in kidneys worked out at 636.2 ± 222.5 ng/g, the “Concentration in skin tissue” value came out at 20.1 ± 11.6 ng/g, the “Concentration in small intestine” value worked out at 325.9 ± 218.0 ng/g and the Kidney-to-plasma concentration ratio stood at 7.55±2.62. Under “24 h after oral administration”, the “Skin tissue-to-plasma concentration ratio” value is given as 0.26±0.20 and the “Small intestine-to-plasma concentration ratio” value is reported as 4.05±2.83.

For the setting “kidneys”, `CCOc1ccc(Cc2cc([C@@H]3S[C@H](CO)[C@@H](O)[C@H](O)[C@H]3O)c(OC)cc2C)cc1` [Luseogliflozin, luseogliflozin] displayed a concentration at 1 h of 94.9 ± 74.3 ng/g and a concentration at 8 h of 80.1 ± 51.7 ng/g. The compound also displayed a concentration at 1 h (small intestine) of 251 ± 178 ng/g.

For `CCOc1ccc(Cc2cc([C@@H]3O[C@H](CO)[C@@H](O)[C@H](O)[C@H]3O)ccc2Cl)cc1` [Dapagliflozin, dapagliflozin], where the note is “kidneys”, the concentration at 1 h was determined as 1030 ± 521 ng/g, the concentration at 8 h was 531 ± 191 ng/g and the concentration at 24 h amounted to 170 ± 40.2 ng/g. Further, where the note is “skin tissue”, the concentration at 1 h came to 42.6 ± 24.7 ng/g and the concentration at 8 h was determined as 13 ± 5 ng/g. Under “small intestine”, this compound gave a concentration at 1 h of 37.9 ± 10.3 ng/g and a concentration at 8 h of 19.7 ± 6.7 ng/g.

In the case of `CCc1ccc(Cc2ccc3c(c2)[C@]2(OC3)O[C@H](CO)[C@@H](O)[C@H](O)[C@H]2O)cc1` [Tofogliflozin, tofogliflozin], the “Time course of kidney-to-plasma concentration ratio” value under setting [1] is on record as “increased time-dependently”. Besides, the concentration at 1 h is 848 ± 116 ng/g (kidneys), 103 ± 29.2 ng/g (skin tissue) and 1360 ± 513 ng/g (small intestine). Also, the concentration at 8 h is, setting by setting: (kidneys) 492 ± 101 ng/g; (skin tissue) 27.1 ± 3.2 ng/g; (small intestine) 250 ± 114 ng/g. The concentration at 24 h (kidneys) was found to be 201 ± 42.9 ng/g.
